Measured values published in patent US20220370310A1, “SURFACE-TREATED MAGNESIUM OR CALCIUM ION-CONTAINING MATERIALS AS WHITE PIGMENTS IN ORAL CARE COMPOSITIONS” (CHILDREN'S MEDICAL CENTER CORPORATION, priority 2020, published 2022).

Columns and labels:
[1] = tested on: antigen-specific T cell responses; experiment: In vivo OVA immunization and T cell re-stimulation; parameters: species or system C57BL/6J mice
Protocol: Flow cytometry: After FcR blockade, 7 days BMDCs were resuspended in MACS buffer (PBS with 1% FCS and 2 mM EDTA), and stained with the following fluorescently conjugated antibodies (BioLegend): anti-CD11c (clone N418), anti-I-A/I-E (clone M5/114.15.2), anti-CD40 (clone 3/23), anti-CD80(16-10A1), anti-CD69 clone (H1.2F3), anti-H-2Kb (clone AF6-88.5). Single cell suspension from the tumor or draining inguinal lymph nodes, or skin inguinal adipose tissue were resuspended in MACS buffer (PBS with 1% FCS and 2 mM EDTA), and stained with the following fluorescently conjugated antibodies (BioLegend): anti-CD8a (clone 53-6.7), anti-CD4 (clone RM4-5), anti-CD44 (clone IM7), anti-CD62L (MEL-14), anti-CD3 (17A2), anti-CD103 (2E7), anti-CD69 clone (H1.2F3), anti-CD45 (A20 or 30F11). LIVE/DEAD™ Fixable Violet Dead Cell Stain Kit (Molecular probes) was used to determine the viability of cells, and cells were stained for 20 minutes in PBS at 4° C. Draining inguinal lymph nodes T cells were stained with OVA-peptide tetramers at room temperature for 1 h. PE-conjugated H2K(b) SIINFEKL (OVA 257-264; SEQ ID NO: 1) and APC conjugated I-A(b) AAHAEINEA (OVA 329-337; SEQ ID NO: 2) were used. I-A(b) and H2K(b) associated with CLIP peptides were used as isotype controls. […] Data were analyzed using FlowJo software.
Intracellular staining: For intracellular cytokine staining, cells were stimulated with 50 ng/ml phorbol 12-myristate 13-acetate (PMA) and 500 ng/ml ionomycin (Sigma-Aldrich) in the presence of GolgiStop (BD) and brefeldin A for 4-5 h. […] Data were analyzed using FlowJo software.
In vivo immunization and T cell re-stimulation: Female C57BL/6J mice aged 8 weeks, were immunized subcutaneously (s.c.) on the left lower back with either 150 μg/mouse endotoxin-free OVA plus 10 μg/mouse LPS emulsified in incomplete Freund's adjuvant, or with 150 μg/mouse endotoxin-free OVA, plus 65 μg/mouse oxPAPC or PGPC, plus 10 μg/mouse LPS emulsified in incomplete Freund's adjuvant. […] Secretion of IFNγ, IL-10 and IL-2 were measured by ELISA 5 days later. […]

[2] = tested on: B16OVA cells; experiment: Immunization prior to tumor inoculation, B16OVA challenge; format: in vivo, C57BL/6 mice; conditions: s.c. immunization with B16OVA WTL, challenge 15 days later
Protocol: Whole tumor cell lysates preparation: To prepare whole tumor cell lysates (WTL) for immunization, tumor cell lines were cultured for 4-5 days in complete DMEM. When cells became confluent, supernatants were collected, and the cells were washed and dissociated using trypsin-EDTA (Gibco). Tumor cell lines were then resuspended at 5×10^6 cells/ml in their collected culture supernatant, then lysed by 3 cycles of freeze-thawing.
In vivo immunization and tumor challenges: For immunization prior tumor inoculation, C57BL/6 mice were injected subcutaneously (s.c.) into the right flank with PBS (unimmunized), WTL alone or with LPS, or WTL plus LPS and OxPAPC or PGPC all emulsified in incomplete Freud's adjuvant (IFA). In some experiments, LPS is replaced by MPLA. […] Tumor-free mice were re-challenged s.c. into the upper back with a lethal dose of 5×10^5 viable B16OVA or B16F-10 cells, or 1×10^6 of viable MC38-OVA cells as indicated.
Tumor Infiltration: To assess the frequency of tumor-infiltrating lymphocytes (TIL) in immunized mice, tumors were harvested when their size reached 1.8-2 cm. Tumors were dissociated using the tumor Dissociation Kit (Milteny Biotec) and the gentleMACS dissociator following the manufacturer's protocol. […] CD45^+ cells were positively selected using CD45 microbeads (Milteny Biotec), and T cell infiltration was assessed by flow cytometry. […]

[3] = tested on: BMDCs; conditions: prior work (Zanoni et al., 2016); cited from earlier work
[4] = tested on: OT-I and OT-II T cells; experiment: OT-I and OT-II in vitro T-cell stimulation; format: cell-based, mouse; conditions: OVA-loaded BMDCs pretreated with stimulus, FIG. 1F
Protocol: OT-I and OT-II in vitro T-cell stimulation: Splenic CD8+ and CD4^+ T cells were sorted from OT-I and OT-II mice by magnetic cell sorting with anti-CD8 beads or anti-CD4 beads respectively (Miltenyi Biotech). Sorted T cells were then seeded in 96-well plates at a concentration of 100.000 cells per well in the presence of either 20.000 or 10.000 DCs (5:1 or 10:1 ratio) that were pretreated with either LPS (activation stimuli) or LPS+PGPC (hyperactivation stimuli) or LPS+Alum (pyroptotic stimuli) and pulsed (or not) with OVA protein or SIINFEKL (SEQ ID NO: 1) peptide at 100 μg/ml for 2 hours. 5 days post culture, supernatants were collected and clarified by centrifugation for short-term storage at −20° C. and cytokine measurement by ELISA.
Intracellular staining: For intracellular cytokine staining, cells were stimulated with 50 ng/ml phorbol 12-myristate 13-acetate (PMA) and 500 ng/ml ionomycin (Sigma-Aldrich) in the presence of GolgiStop (BD) and brefeldin A for 4-5 h. Cells were then washed twice with PBS, and stained with LIVE/DEAD™ Fixable violet or green Dead Cell Stain Kit (Molecular probes) in PBS for 20 min at 4° C. Cells were washed with MACS buffer, and stained for appropriate surface markers for 20 min at 4° C. […] Data were analyzed using FlowJo software.

Row | Compound | effector and memory T cell generation in dLN ([1]; 7 and 40 days post-immunization with OVA (+LPS), CD44/CD62L flow cytometry) | antigen-specific tetramer+IFNγ+ T cell responses ([1]; WT mice, 7 days post immunization with OVA, re-stimulated 7 days with OVA-loaded BMDC) | protection against B16OVA tumor challenge [2] | TNFα and IL-1β release by LPS-activated BMDCs [3] | TH1/TH2 phenotype of the T cell response ([1]; immunization with OVA) | IL-10 and IL-13 release by OT-II T cells [4]
1 | CCCCCCCCCCCCCCCC(=O)OC[C@H](COP(=O)([O-])OCC[N+](C)(C)C)OC(=O)CCCC(=O)O [PGPC, [(2R)-2-(4-carboxybutanoyloxy)-3-hexadecanoyloxypropyl] 2-(trimethylazaniumyl)ethyl phosphate] | enhance the magnitude of effector and memory T cell generation | highest frequency of tetramer+IFNγ+ responses | confers optimal protection |  |  | 
2 | lipopolysaccharide [LPS] |  |  |  | release TNFα but not IL-1β | mixed TH1 and TH2 phenotype | large amounts of IL-10, and IL-13
